We go through eight compounds from ChEMBL document CHEMBL2074233, “Expression and pharmacological profile of the human organic cation transporters hOCT1, hOCT2 and hOCT3” (Br J Pharmacol, 2002).

Molecules are shown by their SMILES.

The target of assay [1] is T1, Solute carrier family 22 member 2 (Homo sapiens, UniProt O15244).
T1 sequence (O15244 whole entry): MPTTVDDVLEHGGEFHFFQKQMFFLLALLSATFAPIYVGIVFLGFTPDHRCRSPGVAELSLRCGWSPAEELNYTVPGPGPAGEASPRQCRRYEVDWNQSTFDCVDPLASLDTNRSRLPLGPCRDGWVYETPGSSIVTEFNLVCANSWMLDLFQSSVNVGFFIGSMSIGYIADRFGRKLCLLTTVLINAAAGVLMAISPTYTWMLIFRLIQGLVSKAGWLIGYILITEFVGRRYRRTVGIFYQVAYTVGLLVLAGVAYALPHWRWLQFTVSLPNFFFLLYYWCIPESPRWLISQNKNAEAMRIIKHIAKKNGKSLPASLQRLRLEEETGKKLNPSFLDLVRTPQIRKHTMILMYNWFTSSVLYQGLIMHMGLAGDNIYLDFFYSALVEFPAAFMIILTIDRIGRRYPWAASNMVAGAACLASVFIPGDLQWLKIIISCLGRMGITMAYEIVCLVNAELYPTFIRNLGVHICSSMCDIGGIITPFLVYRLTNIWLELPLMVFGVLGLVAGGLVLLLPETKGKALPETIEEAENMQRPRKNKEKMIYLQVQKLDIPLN
As to the kind of experiment: TP_TRANSPORTER: inhibition of MPP+ uptake (MPP+: 0.025 uM) in OCT2-expressing HEK293 cells.

The target in assay [2] is T2, Solute carrier family 22 member 3 (Homo sapiens, UniProt O75751).
T2 sequence (O75751 whole entry): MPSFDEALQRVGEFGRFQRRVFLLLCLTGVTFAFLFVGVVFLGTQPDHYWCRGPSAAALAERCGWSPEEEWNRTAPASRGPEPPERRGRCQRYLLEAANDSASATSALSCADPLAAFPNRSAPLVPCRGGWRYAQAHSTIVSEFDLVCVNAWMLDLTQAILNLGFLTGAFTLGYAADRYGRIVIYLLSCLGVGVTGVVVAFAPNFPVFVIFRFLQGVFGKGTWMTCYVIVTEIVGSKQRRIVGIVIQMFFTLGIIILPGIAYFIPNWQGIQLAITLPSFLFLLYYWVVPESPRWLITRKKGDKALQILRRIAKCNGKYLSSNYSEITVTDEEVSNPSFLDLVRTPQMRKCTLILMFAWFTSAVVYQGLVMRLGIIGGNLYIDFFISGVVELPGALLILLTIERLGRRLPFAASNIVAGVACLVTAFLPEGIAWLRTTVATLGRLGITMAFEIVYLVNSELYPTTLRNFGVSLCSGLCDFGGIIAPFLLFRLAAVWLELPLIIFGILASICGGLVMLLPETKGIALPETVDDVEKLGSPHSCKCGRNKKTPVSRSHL
In words: TP_TRANSPORTER: inhibition of MPP+ uptake (MPP+: 0.025 uM) in OCT3-expressing HEK293 cells.

Assay [3] addresses T3, Solute carrier family 22 member 1 (Homo sapiens, UniProt O15245).
T3 sequence (O15245 whole entry): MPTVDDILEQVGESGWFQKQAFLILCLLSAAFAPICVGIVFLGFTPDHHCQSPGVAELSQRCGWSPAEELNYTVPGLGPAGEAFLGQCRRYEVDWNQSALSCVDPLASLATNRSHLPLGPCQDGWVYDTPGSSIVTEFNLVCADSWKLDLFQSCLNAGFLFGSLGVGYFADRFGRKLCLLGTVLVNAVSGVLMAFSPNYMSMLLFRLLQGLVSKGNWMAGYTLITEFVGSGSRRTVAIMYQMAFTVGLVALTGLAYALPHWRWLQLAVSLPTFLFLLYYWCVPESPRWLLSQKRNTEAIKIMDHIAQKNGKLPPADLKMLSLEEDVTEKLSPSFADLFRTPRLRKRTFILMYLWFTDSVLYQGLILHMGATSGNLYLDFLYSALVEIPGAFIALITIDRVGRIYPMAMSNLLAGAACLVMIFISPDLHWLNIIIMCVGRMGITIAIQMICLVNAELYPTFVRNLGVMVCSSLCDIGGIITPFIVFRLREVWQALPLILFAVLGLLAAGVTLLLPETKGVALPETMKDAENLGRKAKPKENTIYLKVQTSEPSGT
In words: TP_TRANSPORTER: inhibition of MPP+ uptake (MPP+: 0.025 uM) in OCT1-expressing HEK293 cells.

For `CCN1/C(=C/c2ccc3ccccc3[n+]2CC)C=Cc2ccccc21`, the 50% inhibitory concentration (IC50) came out at 1130 nM in assay [1], 90 nM in assay [2] and 980 nM in assay [3].
For `CN(CCCl)C1c2ccccc2-c2ccccc21`, in that order: 100 nM, 50 nM and above 300 nM.
The like results for `C[C@]12C[C@H](O)[C@H]3[C@@H](CCC4=CC(=O)CC[C@@]43C)[C@@H]1CC[C@@H]2C(=O)CO` [CORTICOSTERONE] were, in that order, 34200 nM, 290 nM and 21700 nM.
For the compound `C[C@]12CC[C@@H]3c4ccc(O)cc4CC[C@H]3[C@@H]1CC[C@@H]2O` [ESTRADIOL], the IC50 in assay [2] was found to be 2880 nM; in assay [3] it was 5730 nM.
On to `COc1cc(C(O)CNC(C)C)ccc1O` (stereo not given) [METIPRENALINE], for which the results for the half-maximal inhibitory concentration (IC50) in assay [1], in assay [2] and in assay [3] were above 100000 nM, 4380 nM and above 100000 nM, respectively.
In the case of `CC(COc1ccccc1)N(CCCl)Cc1ccccc1` (stereo not given) [PHENOXYBENZAMINE], the IC50 in assay [2] was 6130 nM; in assay [3] it was 2720 nM.
With `COc1cc2nc(N3CCN(C(=O)c4ccco4)CC3)nc(N)c2cc1OC` [PRAZOSIN], the values for the half-inhibitory concentration (IC50) in assay [2] and in assay [3] were 12600 nM and 1840 nM, respectively.
`CC(=O)[C@H]1CC[C@H]2[C@@H]3CCC4=CC(=O)CC[C@]4(C)[C@H]3CC[C@]12C` [PROGESTERONE]: the half-maximal inhibitory concentration (IC50) in assay [2] came out at 4280 nM; in assay [3], 3050 nM.

A word on the IC50: it is the concentration that inhibits the measured activity by half.
